{"source": "patent US12019067B2", "about": "“Interferometry based systems to detect small mass changes of an object in a solution” (NantBio, Inc., priority 2020, dated 2024)", "type_in_all_cases": "cell-based, human", "key": {"[1]": {"system": "MM.1R and MM.1S cells", "test": "Multiple myeloma combinatorial screening of therapeutics by LCI, 96 well plate", "conditions": "for overall result: response / overall result: titration effect: 3 concentrations per drug, quadruplicate, 96 well plate; for ranking among screened drugs: bortezomib 20 nM and carfilzomib at 50 nM", "experimental": "In this example, 6 therapeutics at 3 different concentrations, were added in quadruplicate to a 96 well plate. Thus, there were 19 different conditions: bortezomib (20, 5, 1.25 nM); carlifomib (50, 10, 2 nM); dexamethasone (300, 100, 33.3 nM); lenalidomide (50, 10, 2 nM); panobinostat (50, 10, 2 nM); pomalidomide (50, 10, 2 nM); and DMSO (300 nM) as a negative control. In clinical practice, the actual drugs/combinations may be provided by the clinician.\nIn this study, a large number of cells (12,000 total cells) were screened to identify optimal drugs and concentrations. This assay, while performed on MM.1R and MM.1S cells may be performed on any suitable cell type (e.g., patient derived cancer cells from multiple myeloma, breast cancer, lung cancer, etc.). For multiple myeloma cells, a protocol for CD138+ cell enrichment from patient bone marrow is provided in the art.\nFIGS. 25B, 25C, and 25D show the results of this assay, in graphical, dot box, and table format respectively, in which multiple “best treatments” were identified using this system."}, "[2]": {"system": "H929 cells", "test": "Live cell interferometry (LCI) growth of H929 cells with or without bortezomib", "conditions": "for growth trajectory compared to the control: 96 well plate", "experimental": "A typical assay may include, for a single plate, forming groups of seven wells. A range of concentrations may be used, with each concentration (e.g., a DMSO control, varying therapeutic concentrations of 0.039 nM, 0.156 nM, 0.625 nM, 2.5 nM, 10 nM, and 40 nM) applied to a group of wells. In some embodiments, cells are plated, therapeutic(s) are added, and images are collected every 10-15 minutes for the designated period of time.\nFor development of screening techniques, H929 cells may be used. H929 cells, which may be grown in serum free conditions, have the morphologic, ultrastructural, biochemical, immunologic, and cytochemical features of plasma cells (see, Gazdar et al., Blood (1986) 67(6): 1542-9). H929 cells, derived from a human patient with multiple myeloma, are commonly used for multiple myeloma testing and are sensitive to a variety of chemotherapeutic drugs.\nIn this experiment, about 1681 control cells and about 1272 bortezomib treated cells were screened.\nA small but statistically significant difference in growth rate was detected at about 4.5 hrs. […] As shown in this graph, the growth trajectories of the control and bortezomib treated cells begin to diverge between 4-5 hours. […] Here, a vertical line indicates a statistically significant point of divergence using LCI techniques between 4-5 hours.\nIn this experiment, about 1889 control cells and about 1248 bortezomib treated cells were screened. Imaging was initiated after drug addition, every 12 min for 7 hrs. In this study, the normalized growth rate [1/h] of DMSO control cells was 0.0152, while the normalized growth rate [1/h] of 10 nM bortezomib treated cells was 0.0139, for a difference of −8.6% between these two growth rates. As shown by the graph, after about 5 hours, the normalized growth rate of control and 10 nM bortezomib treated cells diverged. Accordingly, under these conditions, efficacy of a drug was determined in about 5 hours.\nFor this graph, the same plate (as used in FIG. 21C) was imaged (for a total of 24 hours) after drug addition. An image was taken every 12 minutes for about 15 hours. About 1867 control cells and about 1426 bortezomib treated cells were screened.\nFIGS. 22A-22D show another study using bortezomib. […] A clear response to the therapeutic was observed, with the drug EC50 expected to be between 2.5-10 nM."}, "[3]": {"system": "MM.1S cells", "test": "LCI growth of MM.1S cells treated with bortezomib or dexamethasone", "description": "As an alternative, MM.1 cells may be used as model cell line for assay development, wherein MM.1S refers to a strain that is sensitive to a drug such as dexamethasone and MM.1R refers to a strain that is resistant to a drug such as dexamethasone. For these types of experiments, a 12 well plate may be seeded at about 1.5××10^5 cells per plate. The desired concentration of therapeutic(s) may be added to each of the six wells. Control wells may also be established using the same dilutions with DMSO as the test well containing drug. LCI imaging may begin immediately after drug addition, with images being taken every 10-15 minutes.\nAbout 2.5××10^5 cells per well were placed on a poly-D-lysine 12 well plate, and incubated for one hour. About 200 nM dexamethasone, 10 nM bortezomib, or DMSO (in duplicate wells) were added to each well, and images were collected every 15 mins for up to 15 hours."}}}
{"compound": "Nc1cccc2c1C(=O)N(C1CCC(=O)NC1=O)C2=O", "note": "(stereo not shown) [pomalidomide]", "values": [{"measurement": "overall result: response", "setting": "[1]", "value": "some response"}, {"measurement": "overall result: titration effect", "setting": "[1]", "value": "good titration effect"}]}
{"compound": "Nc1cccc2c1CN(C1CCC(=O)NC1=O)C2=O", "note": "(stereo not shown) [lenalidomide]", "values": [{"measurement": "overall result: response", "setting": "[1]", "value": "no response"}, {"measurement": "overall result: titration effect", "setting": "[1]", "value": "no titration effect"}]}
{"compound": "CC(C)C[C@H](NC(=O)[C@H](CCc1ccccc1)NC(=O)CN1CCOCC1)C(=O)N[C@@H](Cc1ccccc1)C(=O)N[C@@H](CC(C)C)C(=O)[C@@]1(C)CO1", "note": "[carfilzomib]", "values": [{"measurement": "overall result: response", "setting": "[1]", "value": "good/great response"}, {"measurement": "overall result: titration effect", "setting": "[1]", "value": "good titration effect"}, {"measurement": "ranking among screened drugs", "setting": "[1]", "value": "most effective drugs"}]}
{"compound": "CC(C)C[C@H](NC(=O)[C@H](Cc1ccccc1)NC(=O)c1cnccn1)B(O)O", "note": "[bortezomib]", "values": [{"measurement": "difference between growth rates of treated and DMSO control cells", "setting": "[2]; 2 nM bortezomib", "value": "−6.55", "unit": "%"}, {"measurement": "normalized growth rate", "setting": "[2]; 2 nM bortezomib, imaged about 15 hours", "value": 0.0172, "unit": "h⁻¹"}, {"measurement": "difference between growth rates of treated and DMSO control cells", "setting": "[2]; 10 nM bortezomib, first 7 hrs", "value": "−8.6", "unit": "%"}, {"measurement": "normalized growth rate", "setting": "[2]; 10 nM bortezomib, imaged every 12 min for 7 hrs after drug addition", "value": 0.0139, "unit": "h⁻¹"}, {"measurement": "difference between growth rates of treated and DMSO control cells", "setting": "[2]; 10 nM bortezomib, later imaging about 15 hours (total 24 hours)", "value": "−119.6", "unit": "%"}, {"measurement": "normalized growth rate", "setting": "[2]; 10 nM bortezomib, same plate imaged further about 15 hours (total of 24 hours after drug addition)", "value": 0.000443, "unit": "h⁻¹"}, {"measurement": "growth trajectory compared to the control", "setting": "[2]; 2.5 nM", "value": "did not show a difference in growth trajectory"}, {"measurement": "growth trajectory compared to the control", "setting": "[2]; 10 nM", "value": "significant decline in growth"}, {"measurement": "EC50", "setting": "[2]; Homo sapiens, NCI-H929, 96 well plate, 0-40 nM titration, expected value", "value": "2.5 to 10", "unit": "nM"}, {"measurement": "EC50", "setting": "[3]; Homo sapiens, MM1.S cells, bortezomib titration", "value": "2.5 to 10", "unit": "nM"}, {"measurement": "sensitivity of cells to drug", "setting": "[3]; MM.1S, 10 nM bortezomib", "value": "sensitive"}, {"measurement": "overall result: response", "setting": "[1]", "value": "good/great response"}, {"measurement": "overall result: titration effect", "setting": "[1]", "value": "good titration effect"}, {"measurement": "ranking among screened drugs", "setting": "[1]", "value": "most effective drugs"}]}
{"compound": "C[C@@H]1C[C@H]2[C@@H]3CCC4=CC(=O)C=C[C@]4(C)[C@@]3(F)[C@@H](O)C[C@]2(C)[C@@]1(O)C(=O)CO", "note": "[dexamethasone]", "values": [{"measurement": "reduction of MM.1S growth", "setting": "[3]; about 200 nM dexamethasone, imaged up to 15 hours", "value": 80.5, "unit": "%"}]}
